Values after ≈ are worked out from the molar mass of the structure shown.
What was measured:
Type in all cases: functional, organism-based
[1] = system: Zymoseptoria tritici; assay: Antifungal activity against azoxystrobin-resistant Zymoseptoria tritici T0451 carrying cytochrome-b A143 allele assessed as fungal growth inhibition after 6 days at 20 degC by microplate without alamar blue assay; settings: T0451, 144 h
[2] = system: Zymoseptoria tritici; assay: Antifungal activity against azoxystrobin-sensitive Zymoseptoria tritici T0384 carrying cytochrome-b G143 allele assessed as inhibition of spore germination after 2 days at 18 degC by spotting on PDA medium assay; settings: T0384, 48 h
[3] = system: Zymoseptoria tritici; assay: Antifungal activity against azoxystrobin-sensitive Zymoseptoria tritici T083 carrying cytochrome-b G143 allele assessed as fungal colony perpendicular diameter changes after 10 days at 18 degC by spotting on PDA medium assay; settings: T083, 240 h
[4] = system: Zymoseptoria tritici; assay: Antifungal activity against azoxystrobin-sensitive Zymoseptoria tritici T0470 carrying cytochrome-b G143 allele assessed as fungal colony perpendicular diameter changes after 10 days at 18 degC by spotting on PDA medium assay; settings: T0470, 240 h
[5] = system: Zymoseptoria tritici; assay: Antifungal activity against azoxystrobin-sensitive Zymoseptoria tritici T0460 carrying cytochrome-b G143 allele assessed as fungal colony perpendicular diameter changes after 10 days at 18 degC by spotting on PDA medium assay; settings: T0460, 240 h
[6] = system: Zymoseptoria tritici; assay: Antifungal activity against azoxystrobin-sensitive Zymoseptoria tritici T0209 carrying cytochrome-b G143 allele assessed as fungal colony perpendicular diameter changes after 10 days at 18 degC by spotting on PDA medium assay; settings: T0209, 240 h
[7] = system: Zymoseptoria tritici; assay: Antifungal activity against azoxystrobin-resistant Zymoseptoria tritici T0251 carrying cytochrome-b A143 allele assessed as fungal colony perpendicular diameter changes after 10 days at 18 degC by spotting on PDA medium assay; settings: T0251, 240 h
[8] = system: Zymoseptoria tritici; assay: Antifungal activity against azoxystrobin-resistant Zymoseptoria tritici T032 carrying cytochrome-b A143 allele assessed as fungal colony perpendicular diameter changes after 10 days at 18 degC by spotting on PDA medium assay; settings: T032, 240 h
[9] = system: Zymoseptoria tritici; assay: Antifungal activity against azoxystrobin-resistant Zymoseptoria tritici T0293 carrying cytochrome-b A143 allele assessed as fungal colony perpendicular diameter changes after 10 days at 18 degC by spotting on PDA medium assay; settings: T0293, 240 h
[10] = system: Zymoseptoria tritici; assay: Antifungal activity against azoxystrobin-resistant Zymoseptoria tritici T0254 carrying cytochrome-b A143 allele assessed as fungal growth inhibition after 6 days at 20 degC by microplate without alamar blue assay; settings: T0254, 144 h
[11] = system: Zymoseptoria tritici; assay: Antifungal activity against azoxystrobin-resistant Zymoseptoria tritici T0262 carrying cytochrome-b A143 allele assessed as inhibition of spore germination after 2 days at 18 degC by spotting on PDA medium assay; settings: T0262, 48 h
[12] = system: Zymoseptoria tritici; assay: Antifungal activity against azoxystrobin-resistant Zymoseptoria tritici T0242 carrying cytochrome-b A143 allele assessed as inhibition of spore germination after 2 days at 18 degC by spotting on PDA medium assay; settings: T0242, 48 h
[13] = system: Zymoseptoria tritici; assay: Antifungal activity against azoxystrobin-sensitive Zymoseptoria tritici T0148 carrying cytochrome-b G143 allele assessed as inhibition of spore germination after 2 days at 18 degC by spotting on PDA medium assay; settings: T0148, 48 h
[14] = system: Zymoseptoria tritici; assay: Antifungal activity against azoxystrobin-sensitive Zymoseptoria tritici IPO323 carrying cytochrome-b G143 allele assessed as inhibition of spore germination after 2 days at 18 degC by spotting on PDA medium assay; settings: IPO323, 48 h
[15] = system: Zymoseptoria tritici; assay: Antifungal activity against azoxystrobin-sensitive Zymoseptoria tritici T0213 carrying cytochrome-b G143 allele assessed as fungal colony perpendicular diameter changes after 10 days at 18 degC by spotting on PDA medium assay; settings: T0213, 240 h
[16] = system: Zymoseptoria tritici; assay: Antifungal activity against azoxystrobin-sensitive Zymoseptoria tritici T0403 carrying cytochrome-b G143 allele assessed as fungal colony perpendicular diameter changes after 10 days at 18 degC by spotting on PDA medium assay; settings: T0403, 240 h
[17] = system: Zymoseptoria tritici; assay: Antifungal activity against azoxystrobin-sensitive Zymoseptoria tritici T0214 carrying cytochrome-b G143 allele assessed as fungal growth inhibition after 6 days at 20 degC by microplate without alamar blue assay; settings: T0214, 144 h
[18] = system: Zymoseptoria tritici; assay: Antifungal activity against azoxystrobin-sensitive Zymoseptoria tritici T0278 carrying cytochrome-b G143 allele assessed as fungal colony perpendicular diameter changes after 10 days at 18 degC by spotting on PDA medium assay; settings: T0278, 240 h
[19] = system: Zymoseptoria tritici; assay: Antifungal activity against azoxystrobin-sensitive Zymoseptoria tritici T0384 carrying cytochrome-b G143 allele assessed as fungal colony perpendicular diameter changes after 10 days at 18 degC by spotting on PDA medium assay; settings: T0384, 240 h
[20] = system: Zymoseptoria tritici; assay: Antifungal activity against azoxystrobin-resistant Zymoseptoria tritici T0254 carrying cytochrome-b A143 allele assessed as fungal colony perpendicular diameter changes after 10 days at 18 degC by spotting on PDA medium assay; settings: T0254, 240 h
[21] = system: Zymoseptoria tritici; assay: Antifungal activity against azoxystrobin-sensitive Zymoseptoria tritici T083 carrying cytochrome-b G143 allele assessed as inhibition of spore germination after 2 days at 18 degC by spotting on PDA medium assay; settings: T083, 48 h
[22] = system: Zymoseptoria tritici; assay: Antifungal activity against azoxystrobin-sensitive Zymoseptoria tritici T0466 carrying cytochrome-b G143 allele assessed as fungal colony perpendicular diameter changes after 10 days at 18 degC by spotting on PDA medium assay; settings: T0466, 240 h
[23] = system: Zymoseptoria tritici; assay: Antifungal activity against azoxystrobin-sensitive Zymoseptoria tritici T0209 carrying cytochrome-b G143 allele assessed as inhibition of spore germination after 2 days at 18 degC by spotting on PDA medium assay; settings: T0209, 48 h
[24] = system: Zymoseptoria tritici; assay: Antifungal activity against azoxystrobin-sensitive Zymoseptoria tritici T0210 carrying cytochrome-b G143 allele assessed as inhibition of spore germination after 2 days at 18 degC by spotting on PDA medium assay; settings: T0210, 48 h
[25] = system: Zymoseptoria tritici; assay: Antifungal activity against azoxystrobin-resistant Zymoseptoria tritici T032 carrying cytochrome-b A143 allele assessed as fungal growth inhibition after 6 days at 20 degC by microplate without alamar blue assay; settings: T032, 144 h
[26] = system: Zymoseptoria tritici; assay: Antifungal activity against azoxystrobin-resistant Zymoseptoria tritici T0262 carrying cytochrome-b A143 allele assessed as fungal colony perpendicular diameter changes after 10 days at 18 degC by spotting on PDA medium assay; settings: T0262, 240 h
[27] = system: Zymoseptoria tritici; assay: Antifungal activity against azoxystrobin-resistant Zymoseptoria tritici T0262 carrying cytochrome-b A143 allele assessed as fungal growth inhibition after 6 days at 20 degC by microplate without alamar blue assay; settings: T0262, 144 h
[28] = system: Zymoseptoria tritici; assay: Antifungal activity against azoxystrobin-sensitive Zymoseptoria tritici T0214 carrying cytochrome-b G143 allele assessed as fungal colony perpendicular diameter changes after 10 days at 18 degC by spotting on PDA medium assay; settings: T0214, 240 h
[29] = system: Zymoseptoria tritici; assay: Antifungal activity against azoxystrobin-resistant Zymoseptoria tritici T0414 carrying cytochrome-b A143 allele assessed as fungal colony perpendicular diameter changes after 10 days at 18 degC by spotting on PDA medium assay; settings: T0414, 240 h
[30] = system: Zymoseptoria tritici; assay: Antifungal activity against azoxystrobin-resistant Zymoseptoria tritici T0485 carrying cytochrome-b A143 allele assessed as fungal growth inhibition after 6 days at 20 degC by microplate without alamar blue assay; settings: T0485, 144 h

CO/C=C(/C(=O)OC)c1ccccc1Oc1cc(Oc2ccccc2C#N)ncn1 [AZOXYSTROBIN]
IC50 [1]: > 100 µg/mL | IC50 [2]: 0.76 µg/mL (≈ 1.88 µM) | IC50 [3]: 0.22 µg/mL (≈ 0.545 µM) | IC50 [4]: 0.06 µg/mL (≈ 0.149 µM) | IC50 [5]: 0.09 µg/mL (≈ 0.223 µM) | IC50 [6]: 0.14 µg/mL (≈ 0.347 µM) | IC50 [7]: 15.3 µg/mL (≈ 38 µM) | IC50 [8]: 37.8 µg/mL (≈ 93.8 µM) | IC50 [9]: 10.2 µg/mL (≈ 25.2 µM) | IC50 [10]: 32.6 µg/mL (≈ 80.8 µM) | IC50 [11]: > 100 µg/mL | IC50 [12]: 18.4 µg/mL (≈ 45.7 µM) | IC50 [13]: 0.08 µg/mL (≈ 0.198 µM) | IC50 [14]: 0.07 µg/mL (≈ 0.174 µM) | IC50 [15]: 0.11 µg/mL (≈ 0.273 µM) | IC50 [16]: 0.12 µg/mL (≈ 0.297 µM) | IC50 [17]: 0.02 µg/mL (≈ 0.0496 µM) | IC50 [18]: 0.17 µg/mL (≈ 0.421 µM) | IC50 [19]: 0.33 µg/mL (≈ 0.818 µM) | IC50 [20]: 10.8 µg/mL (≈ 26.8 µM) | IC50 [21]: 0.08 µg/mL (≈ 0.198 µM) | IC50 [22]: 0.11 µg/mL (≈ 0.273 µM) | IC50 [23]: 0.09 µg/mL (≈ 0.223 µM) | IC50 [24]: 0.01 µg/mL (≈ 0.0248 µM) | IC50 [25]: > 100 µg/mL | IC50 [26]: 9.91 µg/mL (≈ 24.6 µM) | IC50 [27]: 11.7 µg/mL (≈ 28.9 µM) | IC50 [28]: 0.09 µg/mL (≈ 0.223 µM) | IC50 [29]: 11.8 µg/mL (≈ 29.3 µM) | IC50 [30]: > 100 µg/mL
